This passage reports selectivity ratio, IC50 and inhibition results from ChEMBL document CHEMBL4837249, “Discovery of Potent Antiallergic Agents Based on an o-Aminopyridinyl Alkynyl Scaffold” (J Med Chem, 2021).

Data set [1] in a line: Therapeutic index, ratio of CC50 for rat RBL2H3 cells to IC50 for Antiallergic activity against anti-DNP-IgE sensitized rat RBL-2H3 cells. Format: toxicity. To be noted: read-out: TI.
The target of data set [2] is Macrophage colony-stimulating factor 1 receptor (Homo sapiens, UniProt P07333). Briefly: Inhibition of human recombinant CSF1R using ATP/Ulight-TK peptide incubated for 15 mins.
Macrophage colony-stimulating factor 1 receptor, sequence (P07333 whole entry): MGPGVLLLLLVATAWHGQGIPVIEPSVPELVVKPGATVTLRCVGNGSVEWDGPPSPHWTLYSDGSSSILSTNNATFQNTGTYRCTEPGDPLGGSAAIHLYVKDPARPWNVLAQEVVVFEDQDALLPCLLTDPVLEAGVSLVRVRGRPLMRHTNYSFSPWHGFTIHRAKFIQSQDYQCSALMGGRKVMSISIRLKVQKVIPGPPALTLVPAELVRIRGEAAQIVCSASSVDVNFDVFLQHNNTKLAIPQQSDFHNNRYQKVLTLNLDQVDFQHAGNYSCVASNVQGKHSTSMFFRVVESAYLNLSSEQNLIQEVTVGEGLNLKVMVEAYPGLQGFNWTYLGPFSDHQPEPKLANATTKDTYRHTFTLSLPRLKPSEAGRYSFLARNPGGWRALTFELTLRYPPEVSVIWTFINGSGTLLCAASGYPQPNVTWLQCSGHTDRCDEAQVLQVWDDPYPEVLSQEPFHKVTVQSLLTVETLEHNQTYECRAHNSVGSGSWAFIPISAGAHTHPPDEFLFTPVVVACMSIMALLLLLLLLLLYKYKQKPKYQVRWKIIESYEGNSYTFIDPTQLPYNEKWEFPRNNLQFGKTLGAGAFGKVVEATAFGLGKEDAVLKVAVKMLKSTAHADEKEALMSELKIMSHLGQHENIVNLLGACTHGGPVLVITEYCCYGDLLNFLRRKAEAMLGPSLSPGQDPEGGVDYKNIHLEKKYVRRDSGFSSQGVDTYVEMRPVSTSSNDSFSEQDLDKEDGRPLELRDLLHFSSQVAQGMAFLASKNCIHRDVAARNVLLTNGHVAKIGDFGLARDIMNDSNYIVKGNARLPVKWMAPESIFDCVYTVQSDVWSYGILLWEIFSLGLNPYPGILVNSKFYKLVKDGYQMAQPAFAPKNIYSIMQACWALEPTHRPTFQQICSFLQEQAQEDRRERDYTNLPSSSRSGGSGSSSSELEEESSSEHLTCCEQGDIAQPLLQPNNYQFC
Another data set deals with RBL-2H3. Description: Antiallergic activity against anti-DNP-IgE sensitized rat RBL-2H3 cells assessed as […] of degranulation by measuring beta-hexosaminidase release using P-nitrophenyl-N-acetyl-D-glucosamide as substrate at 1 uM measured after 1 hr by microplate reader relative to control. Format: functional.
In data set [3] the target is Mast/stem cell growth factor receptor Kit (Homo sapiens) (UniProt P10721). Description: Inhibition of human recombinant c-Kit at 5 nM by radiometric scintillation counting analysis relative to control.
Mast/stem cell growth factor receptor Kit (Homo sapiens), sequence (P10721 whole entry): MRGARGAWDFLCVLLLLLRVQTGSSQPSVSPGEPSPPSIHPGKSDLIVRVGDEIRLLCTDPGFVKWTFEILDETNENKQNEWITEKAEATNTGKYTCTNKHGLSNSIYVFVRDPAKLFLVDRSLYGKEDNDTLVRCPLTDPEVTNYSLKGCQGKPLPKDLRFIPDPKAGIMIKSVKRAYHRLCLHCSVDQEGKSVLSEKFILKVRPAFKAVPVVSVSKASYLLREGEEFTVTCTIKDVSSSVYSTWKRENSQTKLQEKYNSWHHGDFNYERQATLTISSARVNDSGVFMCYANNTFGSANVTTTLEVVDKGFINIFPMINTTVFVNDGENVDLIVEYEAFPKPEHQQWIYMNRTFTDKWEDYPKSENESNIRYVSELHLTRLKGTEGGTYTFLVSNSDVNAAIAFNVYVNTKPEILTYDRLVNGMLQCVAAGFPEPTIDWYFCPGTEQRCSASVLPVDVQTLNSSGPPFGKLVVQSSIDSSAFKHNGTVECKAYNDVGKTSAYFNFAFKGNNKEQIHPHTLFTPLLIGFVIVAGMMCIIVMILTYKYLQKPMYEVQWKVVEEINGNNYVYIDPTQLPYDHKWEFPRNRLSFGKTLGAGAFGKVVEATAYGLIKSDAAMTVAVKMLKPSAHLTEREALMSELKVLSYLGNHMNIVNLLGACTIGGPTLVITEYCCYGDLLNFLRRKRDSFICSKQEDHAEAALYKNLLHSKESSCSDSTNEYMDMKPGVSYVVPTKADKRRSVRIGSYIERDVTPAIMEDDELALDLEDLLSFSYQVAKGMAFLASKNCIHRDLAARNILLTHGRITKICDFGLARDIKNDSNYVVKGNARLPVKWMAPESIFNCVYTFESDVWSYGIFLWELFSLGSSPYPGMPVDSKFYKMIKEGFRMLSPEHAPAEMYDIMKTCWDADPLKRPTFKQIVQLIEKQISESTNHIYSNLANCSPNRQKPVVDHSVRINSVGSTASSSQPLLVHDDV
Data set [4] has as its target T1, Tyrosine-protein kinase Tec (Homo sapiens) (UniProt P42680).
T1 sequence (whole entry): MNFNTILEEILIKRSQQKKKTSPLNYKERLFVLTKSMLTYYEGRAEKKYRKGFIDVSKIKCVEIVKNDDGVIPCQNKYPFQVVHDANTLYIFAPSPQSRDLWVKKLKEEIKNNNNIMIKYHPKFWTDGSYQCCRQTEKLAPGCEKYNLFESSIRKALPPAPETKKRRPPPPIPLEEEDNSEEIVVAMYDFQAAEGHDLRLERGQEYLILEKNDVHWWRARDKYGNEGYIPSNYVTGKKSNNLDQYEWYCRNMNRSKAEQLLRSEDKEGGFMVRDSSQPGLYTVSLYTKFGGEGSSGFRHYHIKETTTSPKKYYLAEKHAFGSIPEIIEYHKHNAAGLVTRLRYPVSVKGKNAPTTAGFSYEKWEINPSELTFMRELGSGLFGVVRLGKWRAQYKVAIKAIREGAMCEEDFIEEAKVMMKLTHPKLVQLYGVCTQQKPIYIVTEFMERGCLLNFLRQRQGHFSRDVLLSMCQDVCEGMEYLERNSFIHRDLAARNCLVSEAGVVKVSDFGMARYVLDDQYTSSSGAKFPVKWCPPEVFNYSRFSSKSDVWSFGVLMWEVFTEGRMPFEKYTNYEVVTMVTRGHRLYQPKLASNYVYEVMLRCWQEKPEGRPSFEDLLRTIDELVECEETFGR
Description: Inhibition of human recombinant Tec (174 to end) at 5 nM by radiometric scintillation counting analysis relative to control.

Data set [5] addresses T2, Cytoplasmic tyrosine-protein kinase BMX (Homo sapiens) (UniProt P51813).
T2 sequence (whole entry): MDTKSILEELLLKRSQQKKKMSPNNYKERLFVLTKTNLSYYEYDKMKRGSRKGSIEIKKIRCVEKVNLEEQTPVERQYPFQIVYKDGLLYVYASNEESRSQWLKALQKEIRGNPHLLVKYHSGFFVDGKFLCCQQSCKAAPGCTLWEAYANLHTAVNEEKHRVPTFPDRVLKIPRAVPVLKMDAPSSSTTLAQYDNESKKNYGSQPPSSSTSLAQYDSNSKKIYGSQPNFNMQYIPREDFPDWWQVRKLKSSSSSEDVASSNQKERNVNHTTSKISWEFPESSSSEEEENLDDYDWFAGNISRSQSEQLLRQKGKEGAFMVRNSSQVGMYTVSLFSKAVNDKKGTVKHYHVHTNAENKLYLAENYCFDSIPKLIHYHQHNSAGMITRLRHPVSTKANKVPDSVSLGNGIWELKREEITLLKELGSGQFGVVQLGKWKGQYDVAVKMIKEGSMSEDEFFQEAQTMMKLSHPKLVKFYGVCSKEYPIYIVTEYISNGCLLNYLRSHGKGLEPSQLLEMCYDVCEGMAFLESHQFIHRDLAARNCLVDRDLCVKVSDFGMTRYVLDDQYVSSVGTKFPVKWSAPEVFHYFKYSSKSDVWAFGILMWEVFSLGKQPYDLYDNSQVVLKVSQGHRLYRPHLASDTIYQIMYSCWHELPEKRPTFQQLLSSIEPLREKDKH
Description: Inhibition of human full length recombinant Bmx at 50 nM by radiometric scintillation counting analysis relative to control.

Data set [6] concerns the target T3, Inhibitor of nuclear factor kappa-B kinase subunit alpha (Homo sapiens) (UniProt O15111).
T3 sequence (whole entry): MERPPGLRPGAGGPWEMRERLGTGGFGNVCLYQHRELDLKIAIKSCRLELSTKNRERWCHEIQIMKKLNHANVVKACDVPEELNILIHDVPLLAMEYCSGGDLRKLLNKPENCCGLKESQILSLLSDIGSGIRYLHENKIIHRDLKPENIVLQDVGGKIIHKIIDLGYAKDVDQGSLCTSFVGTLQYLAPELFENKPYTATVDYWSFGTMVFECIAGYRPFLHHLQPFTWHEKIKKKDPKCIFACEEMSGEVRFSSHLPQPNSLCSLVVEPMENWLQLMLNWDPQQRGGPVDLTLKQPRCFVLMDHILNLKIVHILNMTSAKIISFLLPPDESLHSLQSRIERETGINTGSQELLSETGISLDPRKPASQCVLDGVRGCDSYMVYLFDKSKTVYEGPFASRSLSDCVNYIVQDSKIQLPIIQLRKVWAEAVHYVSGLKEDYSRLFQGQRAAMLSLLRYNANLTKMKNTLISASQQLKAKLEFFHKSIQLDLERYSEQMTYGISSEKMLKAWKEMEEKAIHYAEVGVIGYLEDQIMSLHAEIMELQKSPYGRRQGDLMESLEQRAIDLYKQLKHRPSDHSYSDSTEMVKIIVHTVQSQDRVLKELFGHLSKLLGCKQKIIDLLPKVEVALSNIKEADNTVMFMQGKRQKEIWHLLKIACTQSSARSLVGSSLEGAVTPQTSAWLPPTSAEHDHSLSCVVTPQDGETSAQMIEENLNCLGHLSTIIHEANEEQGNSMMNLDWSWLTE
Description: Inhibition of human full length recombinant IKKalpha at 50 nM by radiometric scintillation counting analysis relative to control.

The target in data set [7] is Tyrosine-protein kinase SYK (Homo sapiens) (UniProt P43405). Description: Inhibition of human full length recombinant Syk at 50 nM by radiometric scintillation counting analysis relative to control.
The target of data set [8] is T1, Tyrosine-protein kinase Tec (Homo sapiens). Briefly: Inhibition of human recombinant Tec (174 to end) at 50 nM by radiometric scintillation counting analysis relative to control.
The target is the same in data set [9]. Description: Inhibition of human recombinant Tec (174 to end) at 500 nM by radiometric scintillation counting analysis relative to control.
Data set [10] addresses Cytoplasmic tyrosine-protein kinase BMX (Homo sapiens, UniProt P51813). Briefly: Inhibition of human full length recombinant Bmx by radiometric scintillation counting analysis.
Data set [11] concerns the target Tyrosine-protein kinase ABL1 (Homo sapiens, UniProt P00519). Briefly: Inhibition of human recombinant ABL1 using ATP/Ulight-TK peptide incubated for 15 mins.
For data set [12], the target named is Tyrosine-protein kinase CSK (Homo sapiens, UniProt P41240). Description: Inhibition of human full length recombinant CSK by radiometric scintillation counting analysis.
Tyrosine-protein kinase CSK, sequence (P41240 whole entry): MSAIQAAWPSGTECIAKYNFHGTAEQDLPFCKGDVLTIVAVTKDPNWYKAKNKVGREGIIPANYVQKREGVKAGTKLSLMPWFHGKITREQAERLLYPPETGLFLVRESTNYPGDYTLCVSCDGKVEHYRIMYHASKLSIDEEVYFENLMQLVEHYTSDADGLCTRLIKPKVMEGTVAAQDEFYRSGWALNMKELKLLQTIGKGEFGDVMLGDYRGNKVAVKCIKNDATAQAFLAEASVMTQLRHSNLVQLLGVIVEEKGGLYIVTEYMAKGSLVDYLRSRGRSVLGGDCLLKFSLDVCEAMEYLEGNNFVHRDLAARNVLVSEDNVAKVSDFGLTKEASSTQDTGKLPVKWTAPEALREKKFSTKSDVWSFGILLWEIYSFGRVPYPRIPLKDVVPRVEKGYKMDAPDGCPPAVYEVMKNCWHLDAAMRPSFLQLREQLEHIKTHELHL
Data set [13] deals with RAC-alpha serine/threonine-protein kinase (Homo sapiens) (UniProt P31749). Briefly: Inhibition of human recombinant PKBalpha at 5 nM radiometric scintillation counting analysis relative to control.
RAC-alpha serine/threonine-protein kinase (Homo sapiens), sequence (P31749 whole entry): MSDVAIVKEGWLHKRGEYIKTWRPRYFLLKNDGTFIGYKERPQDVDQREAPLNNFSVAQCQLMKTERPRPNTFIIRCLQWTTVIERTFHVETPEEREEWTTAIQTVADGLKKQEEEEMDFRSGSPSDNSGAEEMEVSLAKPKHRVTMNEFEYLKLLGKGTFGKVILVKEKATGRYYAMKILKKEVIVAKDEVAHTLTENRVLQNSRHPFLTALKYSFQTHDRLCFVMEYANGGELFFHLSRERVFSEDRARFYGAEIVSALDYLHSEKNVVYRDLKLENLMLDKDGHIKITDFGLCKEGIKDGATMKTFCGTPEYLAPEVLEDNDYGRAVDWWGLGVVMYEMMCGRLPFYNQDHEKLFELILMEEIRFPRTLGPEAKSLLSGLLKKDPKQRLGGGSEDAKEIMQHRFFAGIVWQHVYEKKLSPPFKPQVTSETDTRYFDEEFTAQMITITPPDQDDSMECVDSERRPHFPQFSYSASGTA

Tyrosine-protein kinase ABL1, sequence (P00519 whole entry): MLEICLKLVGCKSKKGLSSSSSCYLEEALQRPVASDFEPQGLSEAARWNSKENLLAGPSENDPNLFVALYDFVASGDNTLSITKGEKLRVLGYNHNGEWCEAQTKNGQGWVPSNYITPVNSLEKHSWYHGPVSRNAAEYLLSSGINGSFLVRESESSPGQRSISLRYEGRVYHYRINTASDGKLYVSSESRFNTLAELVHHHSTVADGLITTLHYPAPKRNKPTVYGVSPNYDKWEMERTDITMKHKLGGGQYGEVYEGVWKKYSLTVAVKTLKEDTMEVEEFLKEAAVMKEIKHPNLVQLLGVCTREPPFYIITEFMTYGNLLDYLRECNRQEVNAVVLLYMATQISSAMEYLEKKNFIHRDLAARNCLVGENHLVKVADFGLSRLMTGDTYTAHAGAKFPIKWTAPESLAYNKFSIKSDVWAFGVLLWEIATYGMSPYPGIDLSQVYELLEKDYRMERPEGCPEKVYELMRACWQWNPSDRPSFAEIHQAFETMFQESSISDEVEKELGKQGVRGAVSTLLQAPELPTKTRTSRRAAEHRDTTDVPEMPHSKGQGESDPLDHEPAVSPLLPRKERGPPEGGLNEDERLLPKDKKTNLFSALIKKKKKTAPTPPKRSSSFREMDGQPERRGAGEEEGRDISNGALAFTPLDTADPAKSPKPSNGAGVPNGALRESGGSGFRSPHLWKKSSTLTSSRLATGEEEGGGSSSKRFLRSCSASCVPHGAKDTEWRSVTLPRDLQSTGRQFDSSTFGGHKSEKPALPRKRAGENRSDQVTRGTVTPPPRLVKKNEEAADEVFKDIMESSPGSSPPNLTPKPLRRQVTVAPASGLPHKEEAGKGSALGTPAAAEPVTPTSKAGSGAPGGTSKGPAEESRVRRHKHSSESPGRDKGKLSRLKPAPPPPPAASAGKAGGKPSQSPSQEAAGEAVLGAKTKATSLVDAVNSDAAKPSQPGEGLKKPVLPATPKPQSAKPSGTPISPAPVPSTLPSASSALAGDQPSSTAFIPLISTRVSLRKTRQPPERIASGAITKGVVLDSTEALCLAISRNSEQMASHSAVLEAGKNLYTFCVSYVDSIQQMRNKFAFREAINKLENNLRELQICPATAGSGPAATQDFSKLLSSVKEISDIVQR

The term IC50 denotes the concentration needed to halve the response being measured. Usually inhibition stands for the change of the read-out against control, counted positive when it falls. Take `Cc1ccc(C(=O)Nc2ccc(OC(F)(F)F)cc2)cc1C#Cc1cc(-c2cnn(C)c2)cnc1N`: the selectivity ratio in data set [1] turned out to be 16.3. Moreover, in data set [2], the IC50 came out at 0.022 µM. Also, the inhibition at 1 µM with RBL-2H3 amounted to 144%. The inhibition in data set [3] stood at 13%.

In the case of `Cc1ccc(C(=O)Nc2cc(C(F)(F)F)cc(C(F)(F)F)c2)cc1C#Cc1cc(-c2cnn(C)c2)cnc1N`, the selectivity ratio in [1] stood at 148. In addition, the IC50 in [2] turned out to be 0.048 µM; in [10], 0.126 µM; in [11], 0.022 µM; in [12], 0.187 µM. Moreover, the inhibition at 1 µM with RBL-2H3 was 144%. Moreover, the inhibition in [3] is 7%; in data set [4], 1%; in [5], 24%; in [6] it was 3%; in data set [7] it was -1%; in [8], 10%. The inhibition in [9] was -3%; in data set [13] it was -5%.

`Cc1ccc(C(=O)Nc2ccc(Cl)cc2Cl)cc1C#Cc1cc(-c2cnn(C)c2)cnc1N`: the inhibition was -5% in [4]; 23% in data set [5]; 9% in [6]; -3% in data set [7]; -10% in [8]; -7% in data set [9]. The inhibition in [13] was found to be 4%. Further, the figures for the IC50 in data set [10], in [11] and in [12] were > 1 µM, 0.007 µM and > 1 µM, respectively.
